Assay results published in US5114935A, “Substituted 6-benzyl-2H-3,4,5,6-tetrahydro-(1,3)-oxazines” (Dr. Karl Thomae GmbH, priority 1989, dated 1992).
Structures can show the parent of a compound that is named as a salt. Where two headings read alike, the source gives them in different places.

How the values were obtained:
[1] = system: opiate receptors; test: Test of Binding to the Opiate Receptor: inhibition of 3H-diprenorphine binding; design: species or system rat; conditions: up to 100 μM; 0.5 nM 3H-diprenorphine
[2] = system: mechanically provoked coughing; test: Antitussive activity: mechanically provoked coughing in anaesthetised cats; type: in vivo, cat; conditions: for ED50: Felis catus, iv, read-out: ED50 after parallel adjustment (50% reduction in the number of coughs)
Description: The antitussive activity of the compound 6-(p-chlorobenzyl)-3,5,6-trimethyl-2H-3, 4, 5, 6-tetrahydro-oxazine (1,3)-hydrochloride was tested as follows:
33 male and female cats with a body weight of 3.4 to 4.5 kg were anaesthetised with pentobarbital-Na (45 mg/kg as an initial bolus i.p. and then, spread throughout the experiment, several times as required, 7.5 or 15 mg/kg i.v.). Care was taken to keep the animals at about stage 1 to 2 (Guedel) of the tolerance stage.
Coughing fits were provoked mechanically by the insertion of a plastic catheter with a rounded tip, diameter about 1.5 mm, into the trachea as far as the bifurcation. At each time of irritation, a series of 3 stimuli were carried out at intervals of about 30 seconds. The coughing fits were always provoked 5, 25 and 45 minutes after administration of the test substance or vehicle.
The test substance was administered as a solution in 0.9% NaCl solution through a catheter in the V. femoralis. The injected volume was not more than 0.5 ml/kg. Before administration of the substance, the effect of the vehicle was tested on each animal.
By linear regression analysis and linear covariance analysis, the ED50 value (50% reduction in the number of coughs) was determined after parallel adjustment (Table 2).

inhibition of 3H-diprenorphine binding [1]: no inhibition
SMILES: CC1CN(C)COC1(C)Cc1ccc(Cl)cc1 (stereo not drawn) [Active substance, 6-(p-chloro-benzyl)-3,5,6-trimethyl-2H-3,4,5,6-tetrahydro-oxazine(1,3)-hydrochloride]
Percentage inhibition of coughing, MW ± SE ([2]; 0.5 mg/kg i.v., after 5 minutes, n=5): 26.7 ± 8.5%
Percentage inhibition of coughing, MW ± SE ([2]; 0.5 mg/kg i.v., after 25 minutes, n=5): 16.7 ± 10.5%
Percentage inhibition of coughing, MW ± SE ([2]; 0.5 mg/kg i.v., after 45 minutes, n=5): 23.3 ± 10.0%
Percentage inhibition of coughing, MW ± SE ([2]; 0.705 mg/kg i.v., after 5 minutes, n=5): 23.3 ± 6.7%
Percentage inhibition of coughing, MW ± SE ([2]; 0.705 mg/kg i.v., after 25 minutes, n=5): 13.3 ± 6.2%
Percentage inhibition of coughing, MW ± SE ([2]; 0.705 mg/kg i.v., after 45 minutes, n=5): 13.3 ± 3.3%
Percentage inhibition of coughing, MW ± SE ([2]; 1.0 mg/kg i.v., after 5 minutes, n=5): 33.3 ± 18.3%
Percentage inhibition of coughing, MW ± SE ([2]; 1.0 mg/kg i.v., after 25 minutes, n=5): 40.0 ± 16.3%
Percentage inhibition of coughing, MW ± SE ([2]; 1.0 mg/kg i.v., after 45 minutes, n=5): 36.7 ± 3.3%
Percentage inhibition of coughing, MW ± SE ([2]; 1.41 mg/kg i.v., after 5 minutes, n=5): 63.3 ± 13.3%
Percentage inhibition of coughing, MW ± SE ([2]; 1.41 mg/kg i.v., after 25 minutes, n=5): 53.3 ± 16.2%
Percentage inhibition of coughing, MW ± SE ([2]; 1.41 mg/kg i.v., after 45 minutes, n=5): 50.0 ± 18.3%
Percentage inhibition of coughing, MW ± SE ([2]; 2.0 mg/kg i.v., after 5 minutes, n=5): 33.3 ± 17.5%
Percentage inhibition of coughing, MW ± SE ([2]; 2.0 mg/kg i.v., after 25 minutes, n=5): 53.3 ± 14.3%
Percentage inhibition of coughing, MW ± SE ([2]; 2.0 mg/kg i.v., after 45 minutes, n=5): 36.7 ± 17.0%
Percentage inhibition of coughing, MW ± SE ([2]; 2.83 mg/kg i.v., after 5 minutes, n=5): 36.7 ± 14.3%
Percentage inhibition of coughing, MW ± SE ([2]; 2.83 mg/kg i.v., after 25 minutes, n=5): 43.3 ± 13.5%
Percentage inhibition of coughing, MW ± SE ([2]; 2.83 mg/kg i.v., after 45 minutes, n=5): 40.0 ± 11.3%
Percentage inhibition of coughing, MW ± SE ([2]; 4.0 mg/kg i.v., after 5 minutes, n=5): 60.0 ± 11.3%
Percentage inhibition of coughing, MW ± SE ([2]; 4.0 mg/kg i.v., after 25 minutes, n=5): 63.3 ± 13.3%
Percentage inhibition of coughing, MW ± SE ([2]; 4.0 mg/kg i.v., after 45 minutes, n=5): 46.7 ± 9.7%
Percentage inhibition of coughing, MW ± SE ([2]; 5.64 mg/kg i.v., after 5 minutes, n=5): 70.0 ± 20.0%
Percentage inhibition of coughing, MW ± SE ([2]; 5.64 mg/kg i.v., after 25 minutes, n=5): 70.0 ± 20.0%
Percentage inhibition of coughing, MW ± SE ([2]; 5.64 mg/kg i.v., after 45 minutes, n=5): 63.3 ± 17.0%
Percentage inhibition of coughing, MW ± SE ([2]; 8.0 mg/kg i.v., after 5 minutes, n=3): 44.4 ± 29.4%
Percentage inhibition of coughing, MW ± SE ([2]; 8.0 mg/kg i.v., after 25 minutes, n=3): 50.0 ± 25.5%
Percentage inhibition of coughing, MW ± SE ([2]; 8.0 mg/kg i.v., after 45 minutes, n=3): 44.4 ± 20.0%
ED50 ([2]; 5 min, 5 minutes after administration): 2.6 mg/kg
ED50 ([2]; 25 min, 25 minutes after administration): 2.4 mg/kg
ED50 ([2]; 0.75 h, 45 minutes after administration): 3.2 mg/kg
effect on the number of mechanically provoked coughs ([2]; intravenously, 0.5 to 8 mg/kg): reducing the number of mechanically provoked coughs
cough-suppressing effect, doses and testing times at which observed ([2]; intravenously, 0.5 to 8 mg/kg, 5, 25 and 45 minutes): observed from the lowest administered dose upwards, at every testing time
